{"source": "paper PMC4332848", "about": "(Clinical cancer research : an official journal of the …, 2013)", "key": {"[1]": {"system": "AML / acute leukemias", "conditions": "cited from earlier work"}, "[2]": {"system": "BCRP", "assay": "BCRP transcripts in patient leukemic blasts", "format": "in vivo, human", "conditions": "paired t test, 8 paired samples"}, "[3]": {"system": "BCRP", "assay": "Functional expression of BCRP in patient blasts", "format": "in vivo, human", "conditions": "paired t test, 6 paired samples"}, "[4]": {"system": "BCRP (ABCG2)", "assay": "BCRP protein in patient leukemic blasts"}, "[5]": {"system": "human leukemia cell lines", "conditions": "cited from earlier work"}, "[6]": {"system": "HL-60/W", "assay": "Control studies for DR or DcR expression", "format": "cell-based, human"}, "[7]": {"system": "HL-60/W", "conditions": "HL-60 cells, 24-hour exposure to 1 μmol/L vorinostat; cited from earlier work"}, "[8]": {"assay": "Serum vorinostat pharmacokinetics", "format": "in vivo, human", "conditions": "for AUC(0-t): AUC0-8 h; for AUC(0-inf): AUC0-inf"}, "[9]": {"system": "Pgp (ABCB1)", "conditions": "individual patients' blasts on vorinostat; D < 0.15 = no overexpression"}, "[10]": {"system": "patients with poor-risk or advanced acute leukemias"}, "[11]": {"system": "MDR1"}, "[12]": {"system": "buccal mucosal cells", "assay": "Cell-cycle phase distribution, pre vs on vorinostat", "format": "in vivo, human"}, "[13]": {"target": "Pgp (Homo sapiens, UniProt P08183)", "sequence (P08183 whole entry)": "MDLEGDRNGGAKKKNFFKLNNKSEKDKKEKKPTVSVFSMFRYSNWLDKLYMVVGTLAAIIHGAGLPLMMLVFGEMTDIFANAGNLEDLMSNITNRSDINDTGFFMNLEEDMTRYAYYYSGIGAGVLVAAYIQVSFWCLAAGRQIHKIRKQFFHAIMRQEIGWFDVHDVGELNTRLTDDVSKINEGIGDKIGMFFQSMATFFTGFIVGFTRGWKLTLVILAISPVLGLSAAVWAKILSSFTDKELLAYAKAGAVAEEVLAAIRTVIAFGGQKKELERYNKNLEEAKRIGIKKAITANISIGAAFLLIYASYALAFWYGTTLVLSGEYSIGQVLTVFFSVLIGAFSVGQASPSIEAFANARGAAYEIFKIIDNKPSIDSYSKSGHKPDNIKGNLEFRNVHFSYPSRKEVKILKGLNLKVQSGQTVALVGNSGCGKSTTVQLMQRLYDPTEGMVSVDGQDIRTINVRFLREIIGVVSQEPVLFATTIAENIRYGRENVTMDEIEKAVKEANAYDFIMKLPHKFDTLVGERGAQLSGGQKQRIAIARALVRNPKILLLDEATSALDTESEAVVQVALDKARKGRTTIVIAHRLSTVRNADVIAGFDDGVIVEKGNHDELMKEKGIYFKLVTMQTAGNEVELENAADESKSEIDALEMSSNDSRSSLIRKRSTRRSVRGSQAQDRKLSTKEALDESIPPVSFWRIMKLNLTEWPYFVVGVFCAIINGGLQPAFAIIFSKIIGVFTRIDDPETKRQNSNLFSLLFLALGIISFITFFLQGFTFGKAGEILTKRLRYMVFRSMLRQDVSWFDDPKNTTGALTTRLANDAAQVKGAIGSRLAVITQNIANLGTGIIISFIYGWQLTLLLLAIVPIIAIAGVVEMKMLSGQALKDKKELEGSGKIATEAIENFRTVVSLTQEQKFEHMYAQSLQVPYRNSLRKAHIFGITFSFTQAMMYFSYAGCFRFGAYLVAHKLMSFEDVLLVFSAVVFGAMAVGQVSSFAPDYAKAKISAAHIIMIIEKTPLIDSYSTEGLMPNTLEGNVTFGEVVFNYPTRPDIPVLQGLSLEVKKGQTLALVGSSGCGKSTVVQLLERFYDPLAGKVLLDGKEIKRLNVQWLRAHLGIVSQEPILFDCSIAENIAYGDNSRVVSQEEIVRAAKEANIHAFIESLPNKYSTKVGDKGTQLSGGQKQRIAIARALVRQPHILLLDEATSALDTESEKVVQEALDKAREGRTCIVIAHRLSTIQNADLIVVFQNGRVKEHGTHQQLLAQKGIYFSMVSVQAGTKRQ", "conditions": "paired t test, 6 paired samples"}, "[14]": {"system": "leukemic blasts", "assay": "Cell-cycle phase distribution, pre vs on vorinostat", "format": "in vivo, human", "conditions": "Mean"}, "[15]": {"system": "Leukemia blast cells", "assay": "TRAIL death and decoy receptor protein expression, pre vs on vorinostat", "format": "in vivo, human"}, "[16]": {"system": "Buccal mucosa cells", "assay": "TRAIL death receptor protein expression, pre vs on vorinostat", "format": "in vivo, human"}, "[17]": {"conditions": "human, serum, oral, 200 mg, Median, N 21"}}, "note": "“And” between values parts separate entries of the source, which are not always exact repeats. Identical values can stand only once. Like-named read-outs stand apart in the source and are kept apart here.", "data": [{"smiles": "Nc1ccccc1NC(=O)c1ccc(CNC(=O)OCc2cccnc2)cc1", "note": "[MS-275]", "values": [{"measurement": "clinical responses using classical criteria", "setting": "[1]; phase I study, 38 adults with advanced acute leukemias", "value": "no clinical responses"}]}, {"smiles": "CCCC(CCC)C(=O)O", "note": "[valproic acid]", "values": [{"measurement": "response rate", "setting": "[1]; frail or elderly patients with AML, valproic acid alone or in combination with all-trans retinoic acid", "value": 5, "unit": "%"}]}, {"smiles": "O=C(CCCCCCC(=O)Nc1ccccc1)NO", "note": "[vorinostat, suberoylanilide hydroxamic acid]", "values": [{"measurement": "BCRP mRNA expression, on vs pre vorinostat among all patients", "setting": "[2]", "value": "no significant alteration"}, {"measurement": "BCRP function, on vs pre vorinostat", "setting": "[3]", "value": "no difference in function"}, {"measurement": "BCRP Protein, ON (Kolmogorov–Smirnov D value)", "setting": "[4]; individual patients' blasts on vorinostat, D < 0.15 = no overexpression", "value": "0.05 and 0.15 and 0.19"}, {"measurement": "BCRP protein expression following treatment", "setting": "[4]; patients 17 and 24", "value": "slight decreases"}, {"measurement": "interaction between vorinostat and etoposide", "setting": "[5]", "value": "synergy"}, {"measurement": "interaction with anthracyclines and etoposide, in vitro cytotoxicity studies", "setting": "[5]", "value": "additively or synergistically"}, {"measurement": "interaction, concomitant administration of cytarabine and vorinostat", "setting": "[5]", "value": "antagonism"}, {"measurement": "interaction, sequential administration of vorinostat followed by cytarabine", "setting": "[5]", "value": "synergism"}, {"measurement": "concentrations giving significant reduction in the percentage of S-phase cells", "setting": "[5]; within 24 hours after in vitro exposure", "value": "≥ 1", "unit": "µmol/L"}, {"measurement": "DcR1, % Positive cells", "setting": "[6]; 1 μmol/L vorinostat × 24 hours, untreated HL-60/W 23 ± 2", "value": "94.3 ±1.7", "unit": "%"}, {"measurement": "DR5, % Positive cells", "setting": "[6]; 1 μmol/L vorinostat × 24 hours, untreated HL-60/W 47.3 ± 27", "value": "84.2 ± 6.5", "unit": "%"}, {"measurement": "DR4, % Positive cells", "setting": "[6]; 1 μmol/L vorinostat × 24 hours, untreated HL-60/W 55.8 ±14", "value": "73.2 ±15", "unit": "%"}, {"measurement": "DcR2, % Positive cells", "setting": "[6]; 1 μmol/L vorinostat × 24 hours, untreated HL-60/W 56.2 ± 3", "value": "96.3 ±1.1", "unit": "%"}, {"measurement": "DR4, DR5, DcR1, and DcR2 expression", "setting": "[6]; 24-hour exposure to 1 μmol/L vorinostat, P < 0.02, t test", "value": "significantly increases"}, {"measurement": "TRAIL death and decoy receptor expression", "setting": "[7]", "value": "increased DR4 and DR5 expression, but not DcR1 or DcR2 expression"}, {"measurement": "Cmax", "setting": "[8]; DL2, average", "value": "165.2 ± 64.1", "unit": "ng/mL"}, {"measurement": "Cl/F", "setting": "[8]; Geometric mean, N 20", "value": 277, "unit": "L"}, {"measurement": "Vd/F", "setting": "[8]; Geometric mean, N 20", "value": 829, "unit": "L/h"}, {"measurement": "Cl/F", "setting": "[8]; Mean, N 20, serum, first 200 mg oral dose day 1", "value": 300, "unit": "L"}, {"measurement": "Cmax", "setting": "[8]; Mean, N 21, serum, first 200 mg oral dose day 1", "value": 185, "unit": "ng/mL"}, {"measurement": "Cl/F", "setting": "[8]; Median, N 20", "value": 265, "unit": "L"}, {"measurement": "Vd/F", "setting": "[8]; Median, N 20", "value": 689, "unit": "L/h"}, {"measurement": "t1/2", "setting": "[8]; Median, N 20", "value": 1.7, "unit": "h"}, {"measurement": "AUC(0-t)", "setting": "[8]; human, serum, oral, 200 mg, Geometric mean, N 21", "value": 591, "unit": "ng·h/mL"}, {"measurement": "AUC(0-t)", "setting": "[8]; [17]", "value": 623, "unit": "ng·h/mL"}, {"measurement": "AUC(0-inf)", "setting": "[8]; human, serum, oral, 200 mg, Geometric mean, N 20", "value": 722, "unit": "ng·h/mL"}, {"measurement": "AUC(0-inf)", "setting": "[8]; human, serum, oral, 200 mg, Median, N 20", "value": 757, "unit": "ng·h/mL"}, {"measurement": "Cmax", "setting": "[8]; human, serum, oral, 200 mg, Cmax, 65 years or older age group, average", "value": "203 ± 101", "unit": "ng/mL"}, {"measurement": "Cmax", "setting": "[8]; human, serum, oral, 200 mg, Cmax, DL1, average", "value": "197 ± 90.4", "unit": "ng/mL"}, {"measurement": "Cmax", "setting": "[8]; human, serum, oral, 200 mg, Cmax, less than 65 years of age cohort, average", "value": "174 ± 174", "unit": "ng/mL"}, {"measurement": "Tmax", "setting": "[8]; human, serum, oral, 200 mg, 65 years or older age group, average", "value": "1.6 ± 1.1", "unit": "h"}, {"measurement": "Tmax", "setting": "[8]; human, serum, oral, 200 mg, DL2, average", "value": "3.5 ± 2", "unit": "h"}, {"measurement": "Tmax", "setting": "[8]; [17]", "value": 2, "unit": "h"}, {"measurement": "Tmax", "setting": "[8]; human, serum, oral, 200 mg, less than 65 years of age cohort, average", "value": "3.3 ± 3.3", "unit": "h"}, {"measurement": "half-life", "setting": "[8]; human, serum, po, 200 mg", "value": 2.5, "unit": "h"}, {"measurement": "Tmax", "setting": "[8]; human, serum, po, 200 mg, Mean, N 21, serum, first 200 mg oral dose day 1", "value": 2.6, "unit": "h"}, {"measurement": "Pgp Protein, ON (Kolmogorov–Smirnov D value)", "setting": "[9]", "value": "0.05 and 0.07 and 0.08"}, {"measurement": "DLTs", "setting": "[10]; DL1, 200 mg vorinostat p.o. twice a day", "value": "No DLTs"}, {"measurement": "DLTs", "setting": "[10]; DL2, 200 mg vorinostat 3 times a day, among 5 dose-escalation-evaluable patients", "value": 2}, {"measurement": "patients with MDR1 expression increased in the on treatment samples", "setting": "[11]; 7 of 8 paired samples, 95% CI, 50%–99%", "value": 88, "unit": "%"}, {"measurement": "MDR1 mRNA expression, on vs pre vorinostat among all patients", "setting": "[11]; paired t test, 8 paired samples", "value": "no significant alteration"}, {"measurement": "% G0–G1", "setting": "[12]; Mean, N= 17, On vorinostat (days 4 to 7), Pre mean 77.99, P 0.5705", "value": 79.85, "unit": "%"}, {"measurement": "% G2–M", "setting": "[12]; Mean, N= 17, On vorinostat, Pre mean 2.14, P 0.2586", "value": 3.26, "unit": "%"}, {"measurement": "%S", "setting": "[12]; Mean, N= 17, On vorinostat, Pre mean 11.49, P 0.9168", "value": 11.30, "unit": "%"}, {"measurement": "% sub-G0–G1", "setting": "[12]; Mean, N= 17, On vorinostat, Pre mean 11.74, P 0.1942", "value": 7.79, "unit": "%"}, {"measurement": "alteration in any cell-cycle phase upon treatment", "setting": "[12]; pre vs on vorinostat, 17 patients", "value": "no statistically significant alteration"}, {"measurement": "Pgp function, on vs pre vorinostat", "setting": "[13]", "value": "no difference in function"}, {"measurement": "% G0–G1", "setting": "[14]; N = 16, On vorinostat (days 4 to 7), Pre mean 83.97, P 0.1519", "value": 87.60, "unit": "%"}, {"measurement": "% G2–M", "setting": "[14]; N = 16, On vorinostat, Pre mean 3.83, P 0.7556", "value": 3.55, "unit": "%"}, {"measurement": "% sub-G0/G1", "setting": "[14]; N = 16, On vorinostat, Pre mean 4.29, P 0.0693", "value": 2.60, "unit": "%"}, {"measurement": "%S", "setting": "[14]; N = 16, On vorinostat, Pre mean 9.22, P 0.2841", "value": 7.17, "unit": "%"}, {"measurement": "Percentage of cells expressing DcR2", "setting": "[15]; Mean, N 11, On vorinostat, Pre mean 15.83, P 0.5279", "value": "17.56 (11)"}, {"measurement": "Percentage of cells expressing DcR1", "setting": "[15]; Mean, N 11, On vorinostat, Pre mean 17.59, P 0.1364", "value": "25.97 (11)"}, {"measurement": "Percentage of cells expressing DR4", "setting": "[15]; Mean, N 14, On vorinostat, Pre mean 12.21, P 0.5498", "value": "13.82 (14)"}, {"measurement": "Percentage of cells expressing DR5", "setting": "[15]; Mean, N 14, On vorinostat, Pre mean 14.75, P 0.3617", "value": "17.68 (14)"}, {"measurement": "DR4, DR5, DcR1, DcR2 expression, pre vs on vorinostat", "setting": "[15]; two-sample paired t test or Wilcoxon signed-rank test", "value": "no significant differences"}, {"measurement": "Percentage of cells expressing DR5", "setting": "[16]; Mean, N 4, On vorinostat, Pre mean 26.46, P 0.9316", "value": "25.98 (4)"}, {"measurement": "Percentage of cells expressing DR4", "setting": "[16]; Mean, N 4, On vorinostat, Pre mean 27.90, P 0.5873", "value": "41.39 (4)"}, {"measurement": "DR4 or DR5 expression, pre vs on vorinostat", "setting": "[16]; limited samples", "value": "no statistically significant differences"}]}]}
